Test results published in patent US7498300B2, “CRFR1 selective ligands” (The Salk Institute for Biological Studies, priority 2001, dated 2009).

Assays:
CRFR2 = CRFR2 (Mus musculus, UniProt Q60748); conditions: Ruhmann et al., P.N.A.S. 95, 15264-15269 (1998); cited from earlier work
[1] = In vivo lowering of blood pressure on peripheral administration; conditions: administered peripherally
Experimental: (§1) In vivo testing is carried out using the general procedure set forth in C.

[2] = system: cultured rat pituitary cells; assay: In vitro stimulation of ACTH and β-endorphin secretion by cultured rat pituitary cells; format: cell-based
Experimental: as §1

human CRFR1 = molecular target: T1, human CRFR1 (Homo sapiens, UniProt P34998); assay: Competitive binding assay, CHO cells stably expressing human CRFR1, displacement of 125I-(Nle21,Tyr32) ovine CRF
T1 construct: expressed in transfected cells
T1 sequence (P34998 24-415): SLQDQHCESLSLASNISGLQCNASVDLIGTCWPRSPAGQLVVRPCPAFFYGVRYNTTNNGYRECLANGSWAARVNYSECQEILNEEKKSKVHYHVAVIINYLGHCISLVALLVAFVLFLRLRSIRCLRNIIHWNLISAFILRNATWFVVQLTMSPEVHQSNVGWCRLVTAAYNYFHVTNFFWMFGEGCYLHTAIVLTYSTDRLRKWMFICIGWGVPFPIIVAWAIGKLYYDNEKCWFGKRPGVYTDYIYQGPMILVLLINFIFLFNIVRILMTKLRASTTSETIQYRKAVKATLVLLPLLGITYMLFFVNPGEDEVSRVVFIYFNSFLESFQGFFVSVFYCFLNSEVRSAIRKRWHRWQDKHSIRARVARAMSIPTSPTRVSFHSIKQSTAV
Experimental: Binding affinity is a term used to refer to the strength of interaction between ligand and receptor. […] Ki (inhibitory binding affinity constant) is determined using a “standard” or “tracer” radioactive ligand and thus measures the displacement of the tracer from the receptor or binding protein; it is most properly expressed with reference to such tracer. However, so long as these assays are carefully performed under specific conditions with relatively low concentrations of receptor or the like, the calculated Ki will be substantially the same as its dissociation constant KD. […] It is particularly efficient to test for Ki because only a single tracer need be labelled, e.g. radioiodinated.
Binding assays with cells expressing human CRFR1 are carried out as described in the Chen et al. P.N.A.S., supra. The affinities of test peptides for CRFR1 and CRFR2 stably expressed in CHO cells were determined by competitive displacement of ^125I-(Nle^21, Tyr^32) ovine CRF (for CRFR1) or of [^125I-Tyr^o-]Ucn (for CRFR2) as described.

human CRFR2 = molecular target: T2, human CRFR2 (Homo sapiens, UniProt Q13324); assay: Competitive binding assay, CHO cells stably expressing human CRFR2, displacement of [125I-Tyr0]Ucn
T2 construct: expressed in transfected cells
T2 sequence (Q13324 1-411): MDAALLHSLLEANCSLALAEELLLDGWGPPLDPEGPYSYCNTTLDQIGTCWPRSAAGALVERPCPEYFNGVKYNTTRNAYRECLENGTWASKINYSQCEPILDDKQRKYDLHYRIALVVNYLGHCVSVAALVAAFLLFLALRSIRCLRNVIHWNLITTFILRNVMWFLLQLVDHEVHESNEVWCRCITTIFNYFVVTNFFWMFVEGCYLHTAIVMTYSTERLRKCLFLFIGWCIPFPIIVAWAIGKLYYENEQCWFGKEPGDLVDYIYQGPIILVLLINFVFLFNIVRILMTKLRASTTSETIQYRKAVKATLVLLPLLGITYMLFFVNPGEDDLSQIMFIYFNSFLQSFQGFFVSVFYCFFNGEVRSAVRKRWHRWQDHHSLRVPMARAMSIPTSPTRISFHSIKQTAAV
Experimental: The affinities of test peptides for CRFR1 and CRFR2 stably expressed in CHO cells were determined by competitive displacement of ^125I-(Nle^21, Tyr^32) ovine CRF (for CRFR1) or of [^125I-Tyr^o-]Ucn (for CRFR2) as described.

Chain of CRFR2 (Q60748 27-431 isoform Q60748-2 limits assumed): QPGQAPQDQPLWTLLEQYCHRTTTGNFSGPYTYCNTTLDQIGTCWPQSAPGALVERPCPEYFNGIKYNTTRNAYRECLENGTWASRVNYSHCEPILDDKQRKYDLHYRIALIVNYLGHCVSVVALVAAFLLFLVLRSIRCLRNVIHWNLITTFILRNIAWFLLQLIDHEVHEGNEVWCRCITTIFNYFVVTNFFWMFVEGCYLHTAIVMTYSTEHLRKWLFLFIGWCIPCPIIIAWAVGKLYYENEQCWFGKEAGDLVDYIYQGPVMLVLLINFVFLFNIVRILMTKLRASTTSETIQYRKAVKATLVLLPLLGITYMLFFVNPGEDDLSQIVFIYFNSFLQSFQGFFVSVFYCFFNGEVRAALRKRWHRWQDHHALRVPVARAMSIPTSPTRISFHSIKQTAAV

## [D-Phe^11, His^12]-sauvagine(11-40)
CRFR2
  antagonism for CRFR2 compared with the previously best reported compound: close to equal antagonism

## (cyclo 31-34)[Ac-Pro^4, D-Phe^12, Nle^18,21, Glu^31, Lys^34]-sucker urotensin(4-41) [Example 3 B]
[1]
  lowering of blood pressure: very significant lowering of blood pressure
[2]
  stimulation of the secretion of ACTH and β-END-LI: stimulates
Human CRFR1
  binding to CRFR1 (in words): binds strongly
Human CRFR2
  binding to CRFR2 (in words): only very weakly

## (cyclo 31-34)[Ac-Pro^4, D-Phe^12, Nle^18,21, Glu^31, Lys^34]-AHC(4-41) [Example 3 A]
[1]
  lowering of blood pressure: very significant lowering of blood pressure
[2]
  stimulation of the secretion of ACTH and β-END-LI: strongly stimulates
Human CRFR1
  binding to CRFR1 (in words): bind strongly
Human CRFR2
  binding to CRFR2 (in words): only very weakly
